# Laboratory results taken from ChEMBL document CHEMBL4190400, “Identification of Potent Ebola Virus Entry Inhibitors with Suitable Properties for in Vivo Studies” (J Med Chem, 2018).
# Columns and labels:
# Ebolavirus [1] = assay: Antiviral activity against Ebolavirus isolate Kikwit infected in human HeLa cells assessed as inhibition of viral infection pretreated for 2 hrs before viral infection and measured after 48 hrs by EboV GP immunostaining based method; type: functional, cell-based; details: Orthoebolavirus
# Ebolavirus [2] = assay: Antiviral activity against Ebolavirus isolate Makona infected in human HeLa cells assessed as inhibition of viral infection pretreated for 2 hrs before viral infection and measured after 48 hrs by EboV GP immunostaining based method; type: functional, cell-based; details: Orthoebolavirus
# Ebolavirus [3] = assay: (§1) Antiviral activity against recombinant VSV pseudotyped Ebolavirus expressing M-GFP infected in African green monkey Vero E6 cells assessed as inhibition of viral infection pre-incubated for 2 hrs before infection and measured after 8 to 12 hrs in presence of 50% NHS by fluorescence microscopic method; type: functional, Vero C1008
# Ebolavirus [4] = assay: Antiviral activity against Ebola virus - Mayinga, Zaire, 1976 infected in human HeLa cells assessed as inhibition of viral infection pretreated for 2 hrs before viral infection and measured after 48 hrs by EboV GP immunostaining based method; type: functional, cell-based; details: Orthoebolavirus
# [5] = AUClast in mouse at 50 mg/kg, po administered via gavage cotreated with 50 mg/kg ritonavir; type: ADME, organism-based; set-up: dose 50 mg/kg, route oral, time 0 - last; details: in vivo
# [6] = Half life in mouse at 50 mg/kg, po administered via gavage cotreated with 50 mg/kg ritonavir; type: ADME, organism-based; details: in vivo
# [7] = Stability of the compound in mouse plasma at 10 uM assessed as compound remaining after 4 hrs by LC-MS/MS analysis; type: ADME, cell-free; details: read-out: Stability
# [8] = Concentration in mouse plasma at 50 mg/kg, po administered via gavage cotreated with 50 mg/kg ritonavir; type: ADME, organism-based; details: in vivo
# [9] = Cmax in mouse at 50 mg/kg, po administered via gavage cotreated with 50 mg/kg ritonavir; type: ADME, organism-based; set-up: dose 50 mg/kg, route oral; details: in vivo
# Ebolavirus [10] = assay: as §1, with “activity against VSV pseudotyped” for “activity against recombinant VSV pseudotyped”, “presence of 10% FBS and 50% NHS” for “presence of 50% NHS”; type: functional; details: Orthoebolavirus, Vero C1008
# [11] = Tmax in mouse at 50 mg/kg, po administered via gavage cotreated with 50 mg/kg ritonavir; type: ADME, organism-based; details: in vivo
# physchem = details: phosphate buffered saline, pH 7.4
# [12] = Half life in mouse liver microsomes at 1 uM after 60 mins in presence of NADPH and ritonavir by LC-MS/MS analysis; type: ADME, microsome; details: with ritonavir (concentration not stated)
# in vitro = details: mouse, plasma
# [13] = Clearance in mouse at 50 mg/kg, po administered via gavage cotreated with 50 mg/kg ritonavir; type: ADME, organism-based; details: in vivo
# Ebolavirus [14] = assay: Antiviral activity against VSV pseudotyped Ebolavirus expressing M-GFP infected in African green monkey Vero E6 cells assessed as inhibition of viral infection pre-incubated for 2 hrs before infection and measured after 8 to 12 hrs by fluorescence microscopic method; type: functional, Vero C1008; details: Orthoebolavirus, Vero C1008
# [15] = Clearance in mouse at 25 mg/kg, po administered via gavage; type: ADME, organism-based; details: in vivo
# in vivo = details: mouse, po, 25 mg/kg
# [16] = Cmax in mouse at 25 mg/kg, po administered via gavage cotreated with 20 mg/kg ritonavir; type: ADME, organism-based; set-up: dose 25 mg/kg, route oral; details: in vivo
# [17] = Concentration in mouse plasma at 25 mg/kg, po administered via gavage after 12 hrs; type: ADME, organism-based
# [18] = AUClast in mouse at 25 mg/kg, po administered via gavage cotreated with 20 mg/kg ritonavir; type: ADME, organism-based; set-up: dose 25 mg/kg, route oral, time 0 - last; details: in vivo
# [19] = Clearance in mouse at 25 mg/kg, po administered via gavage cotreated with 20 mg/kg ritonavir; type: ADME, organism-based; details: in vivo
# [20] = Concentration in mouse plasma at 25 mg/kg, po administered via gavage cotreated with 20 mg/kg ritonavir; type: ADME, organism-based; details: in vivo
# [21] = Half life in human liver microsomes at 1 uM after 60 mins in presence of NADPH by LC-MS/MS analysis; type: ADME, microsome
# [22] = Half life in mouse liver microsomes at 1 uM after 60 mins in presence of NADPH by LC-MS/MS analysis; type: ADME, microsome
smiles,measurement,setting,value
CS(=O)(=O)c1ccc(CNc2ccc(Cl)cc2CN2CCN(C(=O)CNC(=O)C3CC34CCC(F)(F)CC4)CC2)cc1 (racemic),EC50,Ebolavirus [1],0.035 µM
same,EC50,Ebolavirus [2],0.017 µM
same,IC50,"Ebolavirus [3]; Orthoebolavirus, Vero C1008",0.04 µM
same,EC50,Ebolavirus [4],0.009 µM
CS(=O)(=O)c1ccc(COc2ccc(Cl)cc2CN2CCN(C(=O)CNC(=O)C3CC34CCC(F)(F)CC4)CC2)cc1 (stereo in doubt; 3-22),AUC(0-t),[5],116 µM·h
same,half-life,[6],3.2 h
same,"remaining at 4 h, 10 µM",[7],69%
same,concentration,[8],4.7 µM
same,IC50,Ebolavirus [3]; vero c1008,0.019 µM
same,Cmax,[9],10.4 µM
same,IC50,Ebolavirus [10],0.093 µM
same,Tmax,[11],4 h
same,solubility kinetic,physchem,10 µM
same,half-life at 1 µM,[12],> 2 h
same,fraction unbound at 6 h,in vitro,0.024
same,CL/F,[13],11.9 mL/min/kg
[2H]C([2H])(c1cc(Cl)ccc1N)N1CCN(C(=O)CNC(=O)CC2CCC(F)(F)CC2)CC1,IC50,Ebolavirus [14],0.347 µM
same,"remaining at 4 h, 10 µM",[7],86%
same,IC50,"Ebolavirus [3]; Orthoebolavirus, Vero C1008",1.2 µM
same,CL/F,[15],49 mL/min/kg
same,half-life,in vivo,2.3 h
same,half-life at 1 µM,[12],> 2 h
same,Cmax,[16],12 µM
same,concentration at 12 h,[17],0.2 µM
same,AUC(0-t),[18],76.8 µM·h
same,CL/F,[19],12.3 mL/min/kg
same,concentration,[20],1.7 µM
CS(=O)(=O)c1ccc(COc2ccc(Cl)cc2CN2CCN(C(=O)CNC(=O)C3CC34CCC(F)(F)CC4)CC2)cc1 (racemic),EC50,Ebolavirus [1],0.42 µM
same,EC50,Ebolavirus [2],0.14 µM
same,IC50,"Ebolavirus [3]; Orthoebolavirus, Vero C1008",0.035 µM
same,EC50,Ebolavirus [4],0.21 µM
CS(=O)(=O)c1ccc(CNc2ccc(Cl)cc2CN2CCN(C(=O)CNC(=O)CC3CCC(F)(F)CC3)CC2)cc1,EC50,Ebolavirus [1],0.033 µM
same,EC50,Ebolavirus [2],0.052 µM
same,IC50,"Ebolavirus [3]; Orthoebolavirus, Vero C1008",0.028 µM
same,EC50,Ebolavirus [4],0.012 µM
"[2H]C([2H])(c1cc(Cl)ccc1NCc1ccc(S(C)(=O)=O)cc1)N1CCN(C(=O)CNC(=O)C2CC23CCC(F)(F)CC3)CC1 (single isomer, unassigned; (-))",AUC(0-t),[5],108 µM·h
same,half-life,[6],1.7 h
same,"remaining at 4 h, 10 µM",[7],72%
same,concentration,[8],5.7 µM
same,IC50,"Ebolavirus [3]; Orthoebolavirus, Vero C1008",0.021 µM
same,Cmax,[9],7.4 µM
same,IC50,Ebolavirus [10],0.109 µM
same,Tmax,[11],7.3 h
same,solubility kinetic,physchem,4 µM
same,half-life at 1 µM,[21],1 min
same,half-life at 1 µM,[12],1.45 h
same,half-life at 1 µM,[22],2 min
same,fraction unbound at 6 h,in vitro,0.002
same,CL/F,[13],12.5 mL/min/kg
